Patent publication US8962057B2, “Methods for improving taste and oral care compositions with improved taste” (The Procter & Gamble Company, priority 2009, dated 2015)
Where two headings read alike, the source gives them in different places. One block for each molecule: values may come before it.

Columns and labels:
[1] = Burning sensation on the standard Scoville hotness scale
[2] = target: T1, TRPV1 (Homo sapiens, UniProt Q8NER1); assay: TRPV1 enhancement, enhancer added after TRPV1 activator capsaicin; format: cell-based
T1 construct: expressed in transfected cells
T1 sequence (Q8NER1 whole entry): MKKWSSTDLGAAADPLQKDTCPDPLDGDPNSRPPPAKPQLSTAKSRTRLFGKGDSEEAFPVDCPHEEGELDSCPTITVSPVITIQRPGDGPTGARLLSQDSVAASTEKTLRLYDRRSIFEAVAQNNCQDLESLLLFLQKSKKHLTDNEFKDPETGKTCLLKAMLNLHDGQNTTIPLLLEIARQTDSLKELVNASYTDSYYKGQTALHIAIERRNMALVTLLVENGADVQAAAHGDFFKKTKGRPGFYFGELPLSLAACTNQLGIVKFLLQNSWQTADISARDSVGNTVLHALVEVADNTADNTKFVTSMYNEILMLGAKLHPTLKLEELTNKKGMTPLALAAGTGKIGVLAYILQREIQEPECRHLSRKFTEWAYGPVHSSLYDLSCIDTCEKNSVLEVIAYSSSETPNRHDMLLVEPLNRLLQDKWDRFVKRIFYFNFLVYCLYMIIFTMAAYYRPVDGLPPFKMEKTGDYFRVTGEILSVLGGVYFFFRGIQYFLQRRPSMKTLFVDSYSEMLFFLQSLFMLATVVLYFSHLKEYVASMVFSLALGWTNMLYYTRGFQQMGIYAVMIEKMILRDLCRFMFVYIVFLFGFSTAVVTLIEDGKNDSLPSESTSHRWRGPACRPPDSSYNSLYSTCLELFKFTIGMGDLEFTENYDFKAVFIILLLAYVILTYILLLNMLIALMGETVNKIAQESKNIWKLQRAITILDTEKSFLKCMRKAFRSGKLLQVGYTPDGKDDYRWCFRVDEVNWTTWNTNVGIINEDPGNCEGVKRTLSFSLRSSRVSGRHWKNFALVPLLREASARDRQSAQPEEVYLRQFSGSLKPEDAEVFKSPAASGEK
Description: In order to determine whether TRPV1 is activated, the intracellular calcium ion (Ca^+2) levels in TRPV1 receptors is measured. […] (human embryonic kidney) cells stably transfected with human TRPV1 are grown in 15 ml growth medium [high glucose DMEM (Dulbecco's Modification of Eagle's Medium) supplemented with 10% FBS (fetal bovine serum), 100 μg/ml Penicillin/streptomycin, 100 μg/ml G418] in a 75 Cm^2 flask for 3 days at 33° C. in a mammalian cell culture incubator set at 5% CO2. Cells are detached with addition of 10 ml of PBS (phosphate buffered saline) by hand shaking gently. Cells are transferred to a 50 ml tube and centrifuged at 850 rpm for 3 minutes to remove PBS. After centrifugation, a pellet of cells is formed in the bottom of the tube separating them from the supernatant solution. […] Fluo-4 is a fluorescent dye used for quantifying cellular Ca^2+ concentrations in the 100 nM to 1 microM range. At the end of the 30 minutes, 45 ml of assay buffer [1×HBSS (Hank's Balanced Salt Solution), 20 mM HEPES (4-(2-Hydroxyethyl)-1-piperazineethanesulfonic acid)] is added to wash cells and the resulting combination is then centrifuged at 850 rpm for 3 minutes to remove excess buffer and Fluo-4 AM calcium indicator.
[…] […] For determining the direct effect of test compounds on TRPV1, fluorescence is measured immediately after addition of each compound.

[3] = target: T1, TRPV1; assay: TRPV1 enhancement, TRPV1 activator VBE and enhancer added together; format: cell-based; conditions: VBE 3.5 microMolar
Description: In order to determine whether TRPV1 is activated, the intracellular calcium ion (Ca^+2) levels in TRPV1 receptors is measured. […] (human embryonic kidney) cells stably transfected with human TRPV1 are grown in 15 ml growth medium [high glucose DMEM (Dulbecco's Modification of Eagle's Medium) supplemented with 10% FBS (fetal bovine serum), 100 μg/ml Penicillin/streptomycin, 100 μg/ml G418] in a 75 Cm^2 flask for 3 days at 33° C. in a mammalian cell culture incubator set at 5% CO2. Cells are detached with addition of 10 ml of PBS (phosphate buffered saline) by hand shaking gently. Cells are transferred to a 50 ml tube and centrifuged at 850 rpm for 3 minutes to remove PBS. After centrifugation, a pellet of cells is formed in the bottom of the tube separating them from the supernatant solution. The supernatant is discarded and the cell pellet is suspended in 1 ml of fresh growth medium to which 5 μl (12.5 μg) of Fluo-4 AM (Molecular Probes, Inc.) calcium indicator is added and incubated for 30 min with gentle shaking. Fluo-4 is a fluorescent dye used for quantifying cellular Ca^2+ concentrations in the 100 nM to 1 microM range. At the end of the 30 minutes, 45 ml of assay buffer [1×HBSS (Hank's Balanced Salt Solution), 20 mM HEPES (4-(2-Hydroxyethyl)-1-piperazineethanesulfonic acid)] is added to wash cells and the resulting combination is then centrifuged at 850 rpm for 3 minutes to remove excess buffer and Fluo-4 AM calcium indicator.
The pellet cells are re-suspended in 10 ml assay buffer and 90 μl aliquots (˜50,000 cells) per well delivered to a 96-well assay plate containing 10 μl of test compounds (1 mM in assay buffer, final concentration 100 μM) or buffer control and incubated at room temperature for 30 minutes. After 30 minutes, the plate is placed into a fluorometric imaging plate reader (FLIPR^384 from Molecular Devices) and basal fluorescence recorded (excitation wave length 488 nm and emission wave length 510 nm). The FLIPR assay is an accepted method for detecting changes in intracellular calcium concentration. Then 20 μl of the molecule being tested as a TRPV1 activator is added and fluorescence recorded. For determining the direct effect of test compounds on TRPV1, fluorescence is measured immediately after addition of each compound. Additional discussion of the FLIPR method can be found in Smart et al., Characterization using FLIPR of human vanilloid VR1 receptor pharmacology, European Journal of Pharmacology 417, 51-58 (2001) and Liu et al., Development and validation of a platelet calcium flux assay using a fluorescent imaging plate reader, Analytical Biochemistry 357, 216-224 (2006).
In a separate test, the TRPV1 activator (VBE) and the enhancer are added together. […] See the chart below.

[4] = target: T1, TRPV1; assay: FLIPR calcium flux assay for TRPV1 activation in transfected HEK cells; format: cell-based
Description: The term “TRPV1 activator” as used herein refers to any component which at a concentration of 1 mM gives a calcium flux count of at least 1000 counts above the background level of calcium present in the cell according to the FLIPR method as discussed herein. The term “count” is defined as the change in fluorescence of the transfected cell lines due to the influx of calcium across the cell membrane, which reacts with the calcium sensitive dye present within the cells.
In order to determine whether TRPV1 is activated, the intracellular calcium ion (Ca^+2) levels in TRPV1 receptors is measured. […] (human embryonic kidney) cells stably transfected with human TRPV1 are grown in 15 ml growth medium [high glucose DMEM (Dulbecco's Modification of Eagle's Medium) supplemented with 10% FBS (fetal bovine serum), 100 μg/ml Penicillin/streptomycin, 100 μg/ml G418] in a 75 Cm^2 flask for 3 days at 33° C. in a mammalian cell culture incubator set at 5% CO2. Cells are detached with addition of 10 ml of PBS (phosphate buffered saline) by hand shaking gently. Cells are transferred to a 50 ml tube and centrifuged at 850 rpm for 3 minutes to remove PBS. […] Fluo-4 is a fluorescent dye used for quantifying cellular Ca^2+ concentrations in the 100 nM to 1 microM range. […]
The pellet cells are re-suspended in 10 ml assay buffer and 90 μl aliquots (˜50,000 cells) per well delivered to a 96-well assay plate containing 10 μl of test compounds (1 mM in assay buffer, final concentration 100 μM) or buffer control and incubated at room temperature for 30 minutes. After 30 minutes, the plate is placed into a fluorometric imaging plate reader (FLIPR^384 from Molecular Devices) and basal fluorescence recorded (excitation wave length 488 nm and emission wave length 510 nm). […] Then 20 μl of the molecule being tested as a TRPV1 activator is added and fluorescence recorded. For determining the direct effect of test compounds on TRPV1, fluorescence is measured immediately after addition of each compound. […]

[5] = Consumer Test I: panelists brush with dentifrice and rate bothersome and bad aftertaste; format: in vivo, human; conditions: in dentifrice
Description: In order to show the effect of the addition of a TRPV1 activator and/or Vanitrope on the perception of taste in an oral care composition, the following compositions are made and given to consumers to sample.
The base of the control dentifrice (i.e. everything but the flavor) is made via vacuum mixing. The flavor is added in a second step my speed mixing to complete the control. The additional compositions are then made by speed mixing into the control base the TRPV1 activator and/or vanitrope plus flavor at the stated levels. The samples are then placed in tubes and delivered to the testing facility.
At the testing facility, panelists are provided with a generic brush with 1.0 g of toothpaste. Each panelist has an individual sink, mirror, disposable cup and paper towels. They are asked to brush as they normally would at home. Before and after brushing the panelist will answer a series of questions relating to their experience with the toothpaste. The panelists are asked to comment on their experience right after brushing and then at each hour interval for three hours. The comments from the consumers are translated into numerical values for comparison. The results for the above compositions as it related to bothersome and bad aftertaste are shown below.
Also included in the above testing are combinations of TRPV1 activators and/or vanitrope. The formulations for these tests are below and the control is the same as that listed above.

[6] = both bothersome and bad aftertaste, each of hours 1-3

Molecule: COc1cc(CNC(=O)CCCCCC(C)C)ccc1O [NorhydroCapsaicin]
'Hotness' (as log Scoville Units) [1]: 7.0 log Scoville Units

% Enhancement [2]: 12.33%
Percent Enhancement when combined with 3.5 microMolar VBE ([3]; enhancer level 50 microMolar): 25%
Percent Enhancement when combined with 3.5 microMolar VBE ([3]; enhancer level 100 microMolar): 100%
Percent Enhancement when combined with 3.5 microMolar VBE ([3]; enhancer level 200 microMolar): 175%
Percent Enhancement when combined with 3.5 microMolar VBE ([3]; enhancer level 1000 microMolar): 400%
Molecule: Farnesene

% Enhancement [2]: 13.74%
Molecule: C=C(OCC)C1C(C)(C)CC(=O)CC1(C)C [Kephalis]

direct activation of TRPV1 (TRPV1 activator or not) [4]: not considered to be a TRPV1 activator
Molecule: C/C=C/c1ccc(OCC)c(O)c1 [vanitrope]
taste versus control ([5]; hours 1-3 for bothersome and hours 1-2 for bad aftertaste): taste improvement

Molecule: CC(=O)/C=C/C1C(C)=CCCC1(C)C (stereo not drawn) [Alpha-Ionone]
% Enhancement [2]: 18.84%

Molecule: CCCCC/C=C/C(=O)CCc1ccc(O)c(OC)c1 [6-Shoagol]
'Hotness' (as log Scoville Units) ([1]; burning sensation): 5.1 log Scoville Units

Molecule: COc1cc(CNC(=O)CCCCC/C=C/C(C)C)ccc1O [HomoCapsaicin]
'Hotness' (as log Scoville Units) [1]: 6.9 log Scoville Units

% Enhancement [2]: 17.5%
Molecule: CC(C)=CCCC(C)C=O (centres unmarked) [2,6-Dimethyl-5-Heptenal]

% Enhancement [2]: 14.07%
Molecule: COC(Cc1ccccc1)OC [Phenylacetaldehyde Dimethyl Acetal]

% Enhancement [2]: 19.87%
Molecule: CCCCCCC(C)=O [2-Octanone]

activation level (calcium flux) ([4]; concentration of 300 nM): about 14127.16 calcium ions
Molecule: COc1cc(CNC(=O)CCCC/C=C/C(C)C)ccc1O [Capsaicin, reference compound]
'Hotness' (as log Scoville Units) ([1]; burning sensation): 7.2 log Scoville Units

Molecule: CCCCC[C@H](O)CC(=O)CCc1ccc(O)c(OC)c1 [6-Gingerol]
'Hotness' (as log Scoville Units) ([1]; burning sensation): 4.9 log Scoville Units

Molecule: O=P([O-])([O-])OP(=O)([O-])[O-].[Na+].[Na+].[Na+].[Na+] [Tetrasodium Pyrophosphate]
% Enhancement [2]: 15.62%

Molecule: C=CCS[S+]([O-])CC=C (centres unmarked) [Allicin]
'Hotness' (as log Scoville Units) ([1]; burning sensation): 4.0 log Scoville Units

Molecule: COc1cc(CCC(C)=O)ccc1O [Zingerone]
'Hotness' (as log Scoville Units) ([1]; burning sensation): <4.0 log Scoville Units
taste versus control [5, 6]: improved taste over the control

% Enhancement [2]: 10.62%
Molecule: CCC/C=C/COC(C)=O [Trans-2-Hexenyl Acetate]

% Enhancement [2]: 23.46%
Molecule: CCCC(=O)OC/C=C(\C)CCC=C(C)C [Geranyl Butyrate]

% Enhancement [2]: 10.16%
Molecule: CCCCCCCO [Heptyl Alcohol]

% Enhancement [2]: 28.53%
Molecule: C/C=C/C(=O)C1C(C)C=CCC1(C)C (centres unmarked) [delta-damascone]

% Enhancement [2]: 28.1%
Molecule: C/C=C\C(=O)C1C(C)=CCCC1(C)C (stereo not drawn) [Alpha-Damascone]

activation level (calcium flux) ([4]; concentration of 1 mM): approximately 14942.84 calcium ions
Molecule: CCCCOCc1ccc(O)c(OC)c1 [Vanillyl Butyl Ether]
'Hotness' (as log Scoville Units) ([1]; burning sensation): 5.7 log Scoville Units
taste versus control [5, 6]: improved taste over the control

% Enhancement [2]: 14.64%
Percent Enhancement when combined with 3.5 microMolar VBE ([3]; enhancer level 50 microMolar): 300%
Percent Enhancement when combined with 3.5 microMolar VBE ([3]; enhancer level 100 microMolar): 310%
Percent Enhancement when combined with 3.5 microMolar VBE ([3]; enhancer level 200 microMolar): 410%
Percent Enhancement when combined with 3.5 microMolar VBE ([3]; enhancer level 1000 microMolar): 420%
Molecule: CC(=O)OC(C)(C)Cc1ccccc1 [Alpha, Alpha Dimethylphenethyl Acetate]

Molecule: COc1cc(CNC(=O)CCCCCCCC(C)C)ccc1O [HomodihydroCapsaicin]
'Hotness' (as log Scoville Units) [1]: 6.9 log Scoville Units

% Enhancement [2]: 12.83%
Molecule: C=C(C)C1CC=C(C)C(OC(C)=O)C1 (centres unmarked) [carvyl acetate]

Molecule: O=Cc1ccco1 [Furfural]
% Enhancement [2]: 19.29%
